{
  "source": "paper PMC8952293",
  "about": "“A Histone Deacetylase (HDAC) Inhibitor with Pleiotropic In Vitro Anti-Toxoplasma and Anti-Plasmodium Activities Controls Acute and Chronic Toxoplasma Infection in Mice” (International Journal of Molecular Sciences, 2022)",
  "key": {"[1]": {"test_system": "T. gondii type II Prugniaud strain", "assay": "Chronic phase study: brain cyst burden in infected CBA mice", "assay_type": "in vivo, mouse", "description": "To assess the efficacy of compound JF363 on Toxoplasma cyst formation, infected CBA mice were treated for 15 days, two months post-infection. Then, 15 days later, mice were sacrificed, and brain cysts were counted.\nInbred CBA mice (Janvier Labs, Le Genest-Saint-Isle, France) were infected with 500 tachyzoites of Pru-DeltaKu80::HX strain. One month post-infection, effective infection was assessed by ELISA as described previously. Two months post-infection, mice were treated with 20 or 40 mg/kg of JF363 (corn oil/5% DMSO) for 15 days. Animals were sacrificed 15 days later, corresponding to 3 months post-infection, and brain cysts were counted. After removal and homogenization of mouse’s brain in 4 mL of PBS, suspensions were clarified by gentle incubation in proteinase K buffer (proteinase K 0.4 mg/mL, 10 mM Tris pH 8, ethylenediaminetetraacetic acid (EDTA) 1 mM, sodium dodecyl sulfate (SDS) 0.2%, sodium chloride 40 mM) for 15 min at 56 °C. The reaction was stopped by adding phenylmethylsulfonyl fluoride (PMSF) 2 mM and further incubation for 5 min at room temperature. The suspension was then washed with PBS and resuspended with fluorescein isothiocyanate (FITC)–Dolichos biflorus agglutinin (Vector Laboratories, CA, USA) […] for 30 min, at room temperature. At the end of the incubation, the suspension was washed with PBS and resuspended in a final volume of 1 mL of PBS distributed into six-well culture plates (1 brain per well). The number of cysts was counted by exanimation under an Axiovert 40 CFL inverted fluorescence microscope, Zeiss."}, "[2]": {"conditions": "mouse, in vivo"}, "[3]": {"test_system": "P. berghei hepatic infection", "assay": "In vitro P. berghei hepatic infection of Huh7 cells (bioluminescence)", "assay_type": "cell-based", "conditions": "Plasmodium berghei, Huh-7", "description": "Huh7 cells, a human hepatic cell line employed in the assessment of drug activity against the hepatic stage of P. berghei infection, were cultured in RPMI 1640 supplemented with 10% (v/v) fetal bovine serum, 1% (v/v) penicillin/streptomycin, 1% (v/v) glutamine, 1% (v/v) nonessential amino acids, and 10 mM N-2-hydroxyethylpiperazine-N′-2-ethanesulfonic acid (HEPES) at 37 °C and 5% CO2. For infection, Huh7 cells were seeded in 96-well plates at 1 × 10^4 cells/well.\nLiver stage. The action of JF363 against the liver stage of P. berghei infection was assessed by bioluminescence, as previously described. Briefly, one day before infection, Huh7 cells were seeded in 96-well plates. JF363 stock solution was prepared in dimethyl sulfoxide (DMSO) and serially diluted in infection medium (culture medium supplemented with 50 µg/mL of gentamicin and 0.8 µg/mL of fungizone) to obtain the test concentrations (1, 10, 25, 50, […], 500 nM). […] At 46 h post-infection, the impact of the compound on cell viability was assessed by the AlamarBlue assay (Invitrogen, Carlsbad, CA, USA), following the manufacturer’s instructions. Following the manufacturer’s instructions, the drug’s effect on the parasite load was next evaluated using the Firefly Luciferase Assay Kit 2.0 (Biotium, Fremont, CA, USA). […]"}},
  "data": [
    {"smiles": "COc1cccc(CC(=O)Nc2ccc(C(=O)NO)cc2)c1", "note": "[JF363]", "values": [
      {"measurement": "diminution of cyst burden in the brain compared to untreated animals", "setting": "[1]; 40 mg/kg", "value": 65, "unit": "%"},
      {"measurement": "number of brain cysts, range", "setting": "[1]; 40 mg/kg oral for 15 days, two months post-infection, nontreated 76 to 312", "value": "21–85"},
      {"measurement": "number of brain cysts (mean ± SD)", "setting": "[1]; 40 mg/kg oral for 15 days, two months post-infection, nontreated 168 ± 95, p < 0.05", "value": "57 ± 29"},
      {"measurement": "toxicity in healthy treated mice (survival, hair loss, erythema, organ failure)", "setting": "[2]", "value": "not toxic"},
      {"measurement": "IC50", "setting": "[3]; Pb hepatic infection, Huh7 cells, 46 h post-infection", "value": "0.0989 ± 0.0227", "unit": "µM"},
      {"measurement": "IC50", "setting": "[3]; hepatic stage of Plasmodium infection (discussion)", "value": "~0.1", "unit": "µM"}
    ]}
  ]
}
